Earlier results, collected in patent publication US4981867A, “Treatment of tremor using compounds that depress calcium currents in thalamic and other central nervous system neurons” (The Board of Trustees of the Leland Stanford Junior …, priority 1989, dated 1991).

Tested on: essential-familial tremor
Conditions: stated as known in background

SMILES | suppression of essential-familial tremor
CCC1(c2ccccc2)C(=O)NCNC1=O [primidone] | can be suppressed
CC(C)NCC(O)COc1cccc2ccccc12 (centres unmarked) [propranolol] | can be suppressed
